Earlier results, collected in US20220273652A1, “PHARMACEUTICAL COMPOSITION COMPRISING HMG-COA REDUCTASE INHIBITORS AND FENOFIBRATE” (INTAS PHARMACEUTICALS LTD., priority 2019, published 2022).

System: cytochrome P450
Settings: human hepatocytes

- Substrate for cytochrome P450-based metabolism: poor substrate
SMILES: CC(C)c1nc(N(C)S(C)(=O)=O)nc(-c2ccc(F)cc2)c1/C=C/[C@@H](O)C[C@@H](O)CC(=O)O [rosuvastatin, bis[(E)-7-[4(4-fluorophenyl)-6-isopropyl-2-[methyl(methylsulfonyl)amino]-pyrimidin-5-yl](3R,5S)-3,5dihydroxyhept-6-enoic acid]]
